Reference: the supplement of paper PMC10307832

What was measured:
Assay in all cases: relative viability (nuclei count vs DMSO), 5 days (fraction); higher = more cells survive
[1] = compound: CC[C@H](CO)Nc1nc(NCc2ccccc2)c2ncn(C(C)C)c2n1 [Seliciclib] + Nc1nc2[nH]cc(CCc3ccc(C(=O)N[C@@H](CCC(=O)O)C(=O)O)cc3)c2c(=O)[nH]1 [Pemetrexed] (partner 0.2 µM)
Method in brief: (§1)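 Dosing by pin tool came one day after lung cancer cell lines were seeded in 1536-well plates, using either one drug or a fixed anchor-drug dose plus five library-drug doses (not always all listed) in √10 steps. After 5 days, nuclei were counted on 4× images. Relative viability is treated-well nuclei count divided by vehicle-well nuclei count, and values are medians of duplicate plates.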

[2] = compound: CC[C@H](CO)Nc1nc(NCc2ccccc2)c2ncn(C(C)C)c2n1 [Seliciclib] + O=C(CCCCCCC(=O)Nc1ccccc1)NO [Vorinostat] (partner 1 µM)
Method in brief: as §1

[3] = compound: CC[C@H](CO)Nc1nc(NCc2ccccc2)c2ncn(C(C)C)c2n1 [Seliciclib] + O=C(c1cc(Cc2n[nH]c(=O)c3ccccc23)ccc1F)N1CCN(C(=O)C2CC2)CC1 [Olaparib] (partner 8 µM)
Method in brief: as §1

[4] = compound: CC[C@H](CO)Nc1nc(NCc2ccccc2)c2ncn(C(C)C)c2n1 [Seliciclib] + C[C@]1(O)C[C@@H](c2nc(-c3ccc4ccc(-c5ccccc5)nc4c3)c3c(N)nccn32)C1 [Linsitinib] (partner 1 µM)
Method in brief: as §1

NCI-H650
relative viability ([1]; first compound 0.08 µM): 1.06 | relative viability ([1]; first compound 0.253 µM): 0.905 | relative viability ([1]; first compound 0.8 µM): 1.07 | relative viability ([1]; first compound 2.53 µM): 0.73 | relative viability ([1]; first compound 8 µM): 0.825 | relative viability ([2]; first compound 0.08 µM): 0.403 | relative viability ([2]; first compound 0.253 µM): 0.36 | relative viability ([2]; first compound 0.8 µM): 0.638 | relative viability ([2]; first compound 2.53 µM): 0.3 | relative viability ([2]; first compound 8 µM): 0.341 | relative viability ([3]; first compound 0.08 µM): 0.354 | relative viability ([3]; first compound 0.253 µM): 0.368 | relative viability ([3]; first compound 0.8 µM): 0.417 | relative viability ([3]; first compound 2.53 µM): 0.305 | relative viability ([3]; first compound 8 µM): 0.37 | relative viability ([4]; first compound 0.08 µM): 0.833 | relative viability ([4]; first compound 0.253 µM): 0.925 | relative viability ([4]; first compound 0.8 µM): 1.17 | relative viability ([4]; first compound 8 µM): 0.897

NCI-H661
relative viability ([1]; first compound 0.08 µM): 0.839 | relative viability ([1]; first compound 0.253 µM): 1.03 | relative viability ([1]; first compound 0.8 µM): 0.921 | relative viability ([1]; first compound 2.53 µM): 0.82 | relative viability ([1]; first compound 8 µM): 0.806 | relative viability ([2]; first compound 0.08 µM): 0.721 | relative viability ([2]; first compound 0.253 µM): 0.918 | relative viability ([2]; first compound 0.8 µM): 0.748 | relative viability ([2]; first compound 2.53 µM): 0.703 | relative viability ([2]; first compound 8 µM): 0.565 | relative viability ([3]; first compound 0.08 µM): 0.674 | relative viability ([3]; first compound 0.253 µM): 0.768 | relative viability ([3]; first compound 0.8 µM): 0.695 | relative viability ([3]; first compound 2.53 µM): 0.724 | relative viability ([3]; first compound 8 µM): 0.674 | relative viability ([4]; first compound 0.08 µM): 0.545 | relative viability ([4]; first compound 0.253 µM): 0.542 | relative viability ([4]; first compound 0.8 µM): 0.543 | relative viability ([4]; first compound 2.53 µM): 0.518 | relative viability ([4]; first compound 8 µM): 0.451

NCI-H838
relative viability ([1]; first compound 0.08 µM): 0.246 | relative viability ([1]; first compound 0.253 µM): 0.28 | relative viability ([1]; first compound 0.8 µM): 0.242 | relative viability ([1]; first compound 2.53 µM): 0.263 | relative viability ([1]; first compound 8 µM): 0.239 | relative viability ([2]; first compound 0.08 µM): 0.649 | relative viability ([2]; first compound 0.253 µM): 0.683 | relative viability ([2]; first compound 0.8 µM): 0.666 | relative viability ([2]; first compound 2.53 µM): 0.595 | relative viability ([2]; first compound 8 µM): 0.342 | relative viability ([3]; first compound 0.08 µM): 0.729 | relative viability ([3]; first compound 0.253 µM): 0.765 | relative viability ([3]; first compound 0.8 µM): 0.762 | relative viability ([3]; first compound 2.53 µM): 0.773 | relative viability ([3]; first compound 8 µM): 0.635 | relative viability ([4]; first compound 0.08 µM): 0.933 | relative viability ([4]; first compound 0.253 µM): 0.864 | relative viability ([4]; first compound 0.8 µM): 0.943 | relative viability ([4]; first compound 2.53 µM): 1.07 | relative viability ([4]; first compound 8 µM): 0.966

NCI-H1355
relative viability ([1]; first compound 0.08 µM): 0.945 | relative viability ([1]; first compound 0.253 µM): 0.922 | relative viability ([1]; first compound 0.8 µM): 1.02 | relative viability ([1]; first compound 2.53 µM): 1.02 | relative viability ([1]; first compound 8 µM): 0.962 | relative viability ([2]; first compound 0.08 µM): 0.635 | relative viability ([2]; first compound 0.253 µM): 0.605 | relative viability ([2]; first compound 0.8 µM): 0.647 | relative viability ([2]; first compound 2.53 µM): 0.523 | relative viability ([2]; first compound 8 µM): 0.5 | relative viability ([3]; first compound 0.08 µM): 0.715 | relative viability ([3]; first compound 0.253 µM): 0.697 | relative viability ([3]; first compound 0.8 µM): 0.727 | relative viability ([3]; first compound 2.53 µM): 0.779 | relative viability ([3]; first compound 8 µM): 0.635 | relative viability ([4]; first compound 0.08 µM): 0.788 | relative viability ([4]; first compound 0.253 µM): 0.73 | relative viability ([4]; first compound 0.8 µM): 0.792 | relative viability ([4]; first compound 2.53 µM): 0.892 | relative viability ([4]; first compound 8 µM): 0.812

NCI-H1395
relative viability ([1]; first compound 0.08 µM): 0.932 | relative viability ([1]; first compound 0.253 µM): 0.757 | relative viability ([1]; first compound 0.8 µM): 0.854 | relative viability ([1]; first compound 8 µM): 0.756 | relative viability ([2]; first compound 0.08 µM): 0.83 | relative viability ([2]; first compound 0.253 µM): 0.597 | relative viability ([2]; first compound 0.8 µM): 0.702 | relative viability ([2]; first compound 8 µM): 0.631 | relative viability ([3]; first compound 0.08 µM): 0.459 | relative viability ([3]; first compound 0.253 µM): 0.422 | relative viability ([3]; first compound 0.8 µM): 0.43 | relative viability ([3]; first compound 8 µM): 0.448 | relative viability ([4]; first compound 0.08 µM): 0.961 | relative viability ([4]; first compound 0.253 µM): 0.739 | relative viability ([4]; first compound 0.8 µM): 1 | relative viability ([4]; first compound 2.53 µM): 1.06 | relative viability ([4]; first compound 8 µM): 1.28

NCI-H1437
relative viability ([1]; first compound 0.08 µM): 0.32 | relative viability ([1]; first compound 0.253 µM): 0.358 | relative viability ([1]; first compound 0.8 µM): 0.333 | relative viability ([1]; first compound 2.53 µM): 0.315 | relative viability ([1]; first compound 8 µM): 0.306 | relative viability ([2]; first compound 0.08 µM): 0.811 | relative viability ([2]; first compound 0.253 µM): 0.901 | relative viability ([2]; first compound 0.8 µM): 0.69 | relative viability ([2]; first compound 2.53 µM): 0.633 | relative viability ([2]; first compound 8 µM): 0.374 | relative viability ([3]; first compound 0.08 µM): 0.641 | relative viability ([3]; first compound 0.253 µM): 0.665 | relative viability ([3]; first compound 0.8 µM): 0.595 | relative viability ([3]; first compound 2.53 µM): 0.607 | relative viability ([3]; first compound 8 µM): 0.431 | relative viability ([4]; first compound 0.08 µM): 1.02 | relative viability ([4]; first compound 0.253 µM): 1.06 | relative viability ([4]; first compound 0.8 µM): 0.974 | relative viability ([4]; first compound 2.53 µM): 1.16 | relative viability ([4]; first compound 8 µM): 0.786

NCI-H1651
relative viability ([1]; first compound 0.08 µM): 0.518 | relative viability ([1]; first compound 0.253 µM): 0.591 | relative viability ([1]; first compound 0.8 µM): 0.61 | relative viability ([1]; first compound 2.53 µM): 0.388 | relative viability ([1]; first compound 8 µM): 0.561 | relative viability ([2]; first compound 0.08 µM): 0.515 | relative viability ([2]; first compound 0.253 µM): 0.551 | relative viability ([2]; first compound 0.8 µM): 0.542 | relative viability ([2]; first compound 2.53 µM): 0.477 | relative viability ([2]; first compound 8 µM): 0.457 | relative viability ([3]; first compound 0.08 µM): 0.195 | relative viability ([3]; first compound 0.253 µM): 0.182 | relative viability ([3]; first compound 0.8 µM): 0.201 | relative viability ([3]; first compound 2.53 µM): 0.188 | relative viability ([3]; first compound 8 µM): 0.169 | relative viability ([4]; first compound 0.08 µM): 0.878 | relative viability ([4]; first compound 0.253 µM): 0.879 | relative viability ([4]; first compound 0.8 µM): 0.91 | relative viability ([4]; first compound 2.53 µM): 0.924 | relative viability ([4]; first compound 8 µM): 0.839

NCI-H1666
relative viability ([1]; first compound 0.08 µM): 0.918 | relative viability ([1]; first compound 0.253 µM): 0.959 | relative viability ([1]; first compound 0.8 µM): 0.824 | relative viability ([1]; first compound 2.53 µM): 0.821 | relative viability ([1]; first compound 8 µM): 0.815 | relative viability ([2]; first compound 0.08 µM): 1.01 | relative viability ([2]; first compound 0.253 µM): 1 | relative viability ([2]; first compound 0.8 µM): 0.978 | relative viability ([2]; first compound 2.53 µM): 1.01 | relative viability ([2]; first compound 8 µM): 0.749 | relative viability ([3]; first compound 0.08 µM): 0.737 | relative viability ([3]; first compound 0.253 µM): 0.82 | relative viability ([3]; first compound 0.8 µM): 0.725 | relative viability ([3]; first compound 2.53 µM): 0.752 | relative viability ([3]; first compound 8 µM): 0.604 | relative viability ([4]; first compound 0.08 µM): 0.769 | relative viability ([4]; first compound 0.253 µM): 0.862 | relative viability ([4]; first compound 0.8 µM): 0.662 | relative viability ([4]; first compound 2.53 µM): 0.875 | relative viability ([4]; first compound 8 µM): 0.514

NCI-H1734
relative viability ([1]; first compound 0.08 µM): 0.417 | relative viability ([1]; first compound 0.253 µM): 0.35 | relative viability ([1]; first compound 0.8 µM): 0.432 | relative viability ([1]; first compound 2.53 µM): 0.448 | relative viability ([1]; first compound 8 µM): 0.416 | relative viability ([2]; first compound 0.08 µM): 0.802 | relative viability ([2]; first compound 0.253 µM): 0.623 | relative viability ([2]; first compound 0.8 µM): 0.969 | relative viability ([2]; first compound 2.53 µM): 0.716 | relative viability ([2]; first compound 8 µM): 0.456 | relative viability ([3]; first compound 0.08 µM): 0.58 | relative viability ([3]; first compound 0.253 µM): 0.513 | relative viability ([3]; first compound 0.8 µM): 0.595 | relative viability ([3]; first compound 2.53 µM): 0.536 | relative viability ([3]; first compound 8 µM): 0.521 | relative viability ([4]; first compound 0.08 µM): 0.951 | relative viability ([4]; first compound 0.253 µM): 0.819 | relative viability ([4]; first compound 0.8 µM): 0.824 | relative viability ([4]; first compound 2.53 µM): 1.02 | relative viability ([4]; first compound 8 µM): 0.775
